US20140107109A1, “AMINO-DIHYDROTHIAZINE AND AMINO-DIOXIDO DIHYDROTHIAZINE COMPOUNDS AS BETA-SECRETASE ANTAGONISTS AND METHODS OF USE” (Amgen Inc., priority 2012, published 2014)
Like-named read-outs stand apart in the source and are kept apart here.

What was measured:
[1] = target: Beta Secretase enzyme (BACE1) (Homo sapiens, UniProt P56817); assay: In vitro enzymatic BACE FRET assay; type: biochemical; conditions: read-out: BACE1 FRET assay IC50
In short: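 Readout: dequenched fluorescence (ex 488 nm/[…]) after neutralizing with Tris buffer. Reactions, begun by adding 50 nM quenched peptide substrate spanning the BACE cleavage site, were incubated one hour at pH 4.2 in 0.05 M acetate with 100 uM genapol and 10% final DMSO.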

[2] = system: Aβ40 in conditioned medium of cells stably expressing Amyloid Precursor Protein (APP); assay: In vitro BACE cell-based assay (HEK cell assay), Aβ40 sandwich ELISA; conditions: Homo sapiens, HEK293
In short: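 Aβ40 in conditioned medium was quantified by time-resolved fluorescence sandwich ELISA (pAb40 capture 3 h at 4 °C, biotin-6E10 detection 2 h at 4 °C) after 24 h compound exposure of APP-expressing cells. Doses spanned 10 points from 100 μM or 10 μM top, 0.1% DMSO; IC50 was derived from percent of control.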

Cathepsin D (Cat D) = target: T1, Cathepsin D (Cat D) (Homo sapiens, UniProt P07339); assay: In vitro enzymatic Cathepsin D (Cat D) FRET assay; type: biochemical; conditions: read-out: CatD IC50
T1 construct: Recombinant Cat D was expressed in CHO cells; made in house; host or cells: CHO cells
In short: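 FRET read-out: a fluorophore/quencher-labelled peptide substrate is cleaved by 9 nM Cat D (recombinant, CHO-expressed) following a one-hour preincubation with inhibitor dilutions in DMSO. Tris buffer added to neutralize pH ends the reaction before fluorescence measurement.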

T1 sequence (P07339 65-412, species assumed): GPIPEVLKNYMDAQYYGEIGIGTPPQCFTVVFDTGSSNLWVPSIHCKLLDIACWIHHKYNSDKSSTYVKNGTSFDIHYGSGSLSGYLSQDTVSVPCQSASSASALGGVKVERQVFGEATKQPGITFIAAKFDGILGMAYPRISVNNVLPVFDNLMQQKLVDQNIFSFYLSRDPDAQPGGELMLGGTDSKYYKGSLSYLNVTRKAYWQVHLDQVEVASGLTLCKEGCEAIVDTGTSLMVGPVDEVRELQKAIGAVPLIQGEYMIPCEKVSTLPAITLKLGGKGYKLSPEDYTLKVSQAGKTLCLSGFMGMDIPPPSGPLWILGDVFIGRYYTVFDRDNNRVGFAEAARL
Sequence of Beta Secretase enzyme (BACE1) (P56817 46-501): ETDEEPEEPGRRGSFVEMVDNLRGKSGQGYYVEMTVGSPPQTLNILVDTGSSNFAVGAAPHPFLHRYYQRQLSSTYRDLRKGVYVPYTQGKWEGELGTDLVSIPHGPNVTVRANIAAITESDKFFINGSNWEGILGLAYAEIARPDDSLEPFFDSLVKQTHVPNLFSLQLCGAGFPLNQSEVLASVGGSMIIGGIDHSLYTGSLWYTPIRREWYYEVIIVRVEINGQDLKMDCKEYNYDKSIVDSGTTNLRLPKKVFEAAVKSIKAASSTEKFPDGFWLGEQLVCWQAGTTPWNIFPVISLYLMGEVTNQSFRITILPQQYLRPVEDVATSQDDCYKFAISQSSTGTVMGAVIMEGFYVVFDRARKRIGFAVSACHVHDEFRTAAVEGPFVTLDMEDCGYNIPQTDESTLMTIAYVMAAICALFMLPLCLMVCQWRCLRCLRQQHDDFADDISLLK

SMILES	IC50 ([1]; average IC50, enzyme assay)	IC50 ([2]; average IC50, cell assay)	IC50 (Cathepsin D (Cat D))	IC50 [1]	IC50 [2]
CC1(C)C(N)=N[C@](CF)(c2cc(NC(=O)c3cnc(OCC4CC4)cn3)ccc2F)CS1(=O)=O [Example 156, (S)—N-(3-(5-amino-3-(fluoromethyl)-6,6-dimethyl-1,1-dioxido-3,6-dihydro-2H-1,4-thiazin-3-yl)-4-fluorophenyl)-5-(cyclopropylmethoxy)pyrazine-2-carboxamide]	0.0005 µM	0.0049 µM	835 µM		
CC1(C)C(N)=N[C@](CF)(c2cc(Nc3ncc(F)c4cc(C#N)cnc34)ccc2F)CS1(=O)=O [Example 157, (S)-8-((3-(5-amino-3-(fluoromethyl)-6,6-dimethyl-1,1-dioxido-3,6-dihydro-2H-1,4-thiazin-3-yl)-4-fluorophenyl)amino)-5-fluoro-1,7-naphthyridine-3-carbonitrile]	0.00056 µM	0.0271 µM	> 14.8 µM		
Cc1c(C(=O)Nc2ccc(F)c([C@]3(CF)CS(=O)(=O)C(C)(C)C(N)=N3)c2)nc2ccc(Cl)cn12 [Example 158, (S)—N-(3-(5-amino-3-(fluoromethyl)-6,6-dimethyl-1,1-dioxido-3,6-dihydro-2H-1,4-thiazin-3-yl)-4-fluorophenyl)-6-chloro-3-methylimidazo[1,2-a]pyridine-2-carboxamide]	0.00303 µM	0.0106 µM	4060 µM		
CC1(C)C(N)=N[C@](C)(c2cc(Nc3nccc4cc(OCC(F)F)cnc34)ccc2F)CS1(=O)=O [Example 161, (R)-5-amino-3-(5-((3-(2,2-difluoroethoxy)-1,7-naphthyridin-8-yl)amino)-2-fluorophenyl)-3,6,6-trimethyl-3,6-dihydro-2H-1,4-thiazine 1,1-dioxide]	0.0143 µM	0.0178 µM	447 µM		

Further lines, results first:

IC50 ([1]; average IC50, enzyme assay)	IC50 ([2]; average IC50, cell assay)	IC50 (Cathepsin D (Cat D))	IC50 [1]	IC50 [2]	SMILES
0.00055 µM	0.0285 µM	159 µM			COc1cnc2c(Nc3ccc(F)c([C@]4(CF)CS(=O)(=O)C(C)(C)C(N)=N4)c3)ncc(F)c2c1 [Example 159, (S)-5-amino-3-(2-fluoro-5-((5-fluoro-3-methoxy-1,7-naphthyridin-8-yl)amino)phenyl)-3-(fluoromethyl)-6,6-dimethyl-3,6-dihydro-2H-1,4-thiazine 1,1-dioxide]
0.575 µM	0.681 µM	> 14.8 µM			CC1(C)C(N)=N[C@](C)(c2cc(NC(=O)N3CC=CCC3)ccc2F)CS1(=O)=O [Example 160, (R)—N-(3-(5-amino-3,6,6-trimethyl-1,1-dioxido-3,6-dihydro-2H-1,4-thiazin-3-yl)-4-fluorophenyl)-5,6-dihydropyridine-1(2H)-carboxamide]
0.0023 µM	0.0015 µM	418 µM			CC1(C)C(N)=N[C@](C)(c2cc(Nc3nncc4cc(C#N)cnc34)ccc2F)CS1(=O)=O [Example 162, (R)-8-((3-(5-amino-3,6,6-trimethyl-1,1-dioxido-3,6-dihydro-2H-1,4-thiazin-3-yl)-4-fluorophenyl)amino)pyrido[2,3-d]pyridazine-3-carbonitrile]
3.25 µM	2.36 µM	73.5 µM			CC1(C)C(N)=N[C@](C)(c2cc(Sc3ccccn3)ccc2F)CS1(=O)=O [Example 163, (R)-5-amino-3-(2-fluoro-5-(pyridin-2-ylthio)phenyl)-3,6,6-trimethyl-3,6-dihydro-2H-1,4-thiazine 1,1-dioxide]
3.72 µM	3.03 µM	190 µM			CC1(C)C(N)=N[C@](C)(c2cc(N)ccc2F)[C@@H](F)S1(=O)=O [Example 164, (2S,3R)-5-amino-3-(5-amino-2-fluorophenyl)-2-fluoro-3,6,6-trimethyl-3,6-dihydro-2H-1,4-thiazine 1,1-dioxide]
		11.8 µM	0.0139 µM	1.44 µM	CC1(C)C(N)=N[C@](C)(c2cc(Nc3c(Cl)sc4cc(C#N)cnc34)ccc2F)CS1(=O)=O [Example 167, (R)-3-((3-(5-amino-3,6,6-trimethyl-1,1-dioxido-3,6-dihydro-2H-1,4-thiazin-3-yl)-4-fluorophenyl)-amino)-2-chlorothieno[3,2-b]pyridine-6-carbonitrile]
